Reference: PubChem BioAssay AID652166 (The Scripps Research Institute Molecular Screening Center, 2013)
Active and inactive are the calls of the source. How the calls were made is not given here.

Test system: NOD2-RIPK2 signaling cell assay, absorbance 620 nm
Test: NOD2-RIPK2 signaling inhibitors, IC50, late-stage follow-up, cell-based, absorbance 620 nm (AID 652166)

Row | SMILES | IC50
1 | Cc1nc([N+](=O)[O-])c(Br)n1Cc1ccccc1 | > 10 µM (inactive)
2 | Cc1ncc([N+](=O)[O-])n1Cc1ccc(Cl)c(Cl)c1 | > 10 µM (inactive)
3 | Cc1ccc(C(C[N+](=O)[O-])n2nc(C)cc2C)cc1 (stereo unspecified) | > 10 µM (inactive)
4 | COc1ccc(C(C[N+](=O)[O-])n2nc(C)cc2C)cc1 (stereo unspecified) | > 10 µM (inactive)
5 | Cc1ccc(S(=O)(=O)N2CCCCCC2)cc1[N+](=O)[O-] | > 10 µM (inactive)
6 | Cc1nc([N+](=O)[O-])c(Br)n1Cc1ccc(Cl)c(Cl)c1 | > 10 µM (inactive)

Second part, the molecule after the results:

Row | IC50 | SMILES
7 | > 10 µM (inactive) | O=S(=O)(c1ccc(F)cc1)N1CCCCCC1
8 | > 10 µM (inactive) | O=[N+]([O-])c1cc(S(=O)(=O)N2CCCCCC2)ccc1F
9 | > 10 µM (inactive) | Cc1cc(S(=O)(=O)N2CCCCCC2)ccc1F
10 | > 10 µM (inactive) | O=[N+]([O-])c1cccc(S(=O)(=O)N2CCCCCC2)c1
11 | > 10 µM (inactive) | O=S(=O)(c1ccccc1)N1CCCCCC1
